In patent US20130306000A1, “Aflaxtoxin Resistant Poultry” (priority 2012, published 2013):

What was measured:
[1] = test system: Turkey liver cytosolic GSTs; test: Turkey liver cytosolic GST activity toward substrates; format: biochemical; details: turkey liver cytosol
BHA-induced mouse liver = format: in vitro ADME

Compound	activity of turkey liver cytosolic GSTs toward the substrate [1]	AFB1 detoxification, specific enzyme activity (BHA-induced mouse liver)
O=[N+]([O-])c1ccc(Cl)c([N+](=O)[O-])c1 [CDNB, chlorodinitrobenezene]	active	
O=[N+]([O-])c1ccc(Cl)c(Cl)c1 [DCNB, dichlornitrobenzene]	active	
aflatoxin B1 [AFB1]		0.426 ± 0.04 nmol/min per mg protein
exo-AFB1-8,9-epoxide [AFBO]	not toward	
